Reference: PubChem BioAssay (NCI)
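Method: 48-hour compound exposure of cells in 96-well plates, five concentrations, linear interpolation of endpoints. TGI marks complete inhibition of growth.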

Tests used:
Assay in all cases: DTP human tumour cell line panel, 48 h
[1] = tested on: UACC-257 melanoma
[2] = tested on: ACHN renal
[3] = tested on: XF 498 CNS
[4] = tested on: A498 renal
[5] = tested on: SK-MEL-28 melanoma
[6] = tested on: HS 578T breast
[7] = tested on: K-562 leukemia
[8] = tested on: MDA-MB-435
[9] = tested on: HCT-15 colon
[10] = tested on: SNB-75 CNS
[11] = tested on: KM12 colon
[12] = tested on: EKVX NSCLC
[13] = tested on: TK-10 renal
[14] = tested on: 786-0 renal
[15] = tested on: OVCAR-5 ovarian
[16] = tested on: RXF-631 renal
[17] = tested on: SW-620 colon
[18] = tested on: CCRF-CEM leukemia
[19] = tested on: OVCAR-4 ovarian
[20] = tested on: SN12C renal
[21] = tested on: DU-145 prostate
[22] = tested on: HT29 colon
[23] = tested on: HOP-92 NSCLC
[24] = tested on: NCI-H226 lung
[25] = tested on: SF-268 CNS
[26] = tested on: NCI-H522 lung
[27] = tested on: CAKI-1 renal
[28] = tested on: U251 CNS
[29] = tested on: UACC-62 melanoma
[30] = tested on: BT-549 breast
[31] = tested on: RXF 393 renal
[32] = tested on: SK-OV-3 ovarian
[33] = tested on: MALME-3M melanoma
[34] = tested on: HCC-2998 colon
[35] = tested on: MDA-MB-231 breast
[36] = tested on: SNB-78 CNS
[37] = tested on: T-47D breast
[38] = tested on: NCI-H23 lung
[39] = tested on: PC-3 prostate
[40] = tested on: DMS 114 small cell lung
[41] = tested on: NCI-H460 lung
[42] = tested on: SF-295 CNS
[43] = tested on: OVCAR-3 ovarian
[44] = tested on: HOP-18 NSCLC
[45] = tested on: MDA-N
[46] = tested on: SF-539 CNS
[47] = tested on: LOX IMVI melanoma
[48] = tested on: RPMI-8226 leukemia
[49] = tested on: M19-MEL melanoma
[50] = tested on: OVCAR-8 ovarian
[51] = tested on: SNB-19 CNS
[52] = tested on: DLD-1 colon
[53] = tested on: LXFL 529 NSCLC
[54] = tested on: COLO 205 colon
[55] = tested on: M14 melanoma
[56] = tested on: SK-MEL-5 melanoma
[57] = tested on: UO-31 renal
[58] = tested on: HL-60(TB) leukemia
[59] = tested on: HCT-116 colon
[60] = tested on: SK-MEL-2 melanoma
[61] = tested on: IGROV1 ovarian

CNC1C(O)CC(OC2C/C=C(\C)C/C(C)=C/C=C/CCC(C)CNC(=O)/C=C/C=C/C2C)OC1C (stereo unspecified)
TGI [1]: 1650 nM
TGI [2]: 2850 nM
TGI [3]: 3760 nM
TGI [4]: 3240 nM
TGI [5]: 2970 nM
TGI [6]: 1850 nM
TGI [7]: 184 nM
TGI [8]: 820 nM
TGI [9]: 531 nM
TGI [10]: 2910 nM
TGI [11]: 1020 nM
TGI [12]: 3000 nM
TGI [13]: 3170 nM
TGI [14]: 294 nM
TGI [15]: 2530 nM
TGI [16]: 401 nM
TGI [17]: 261 nM
TGI [18]: 758 nM
TGI [19]: 668 nM
TGI [20]: 1940 nM
TGI [21]: 2790 nM
TGI [22]: 504 nM
TGI [23]: 2110 nM
TGI [24]: 43800 nM
TGI [25]: 1780 nM
TGI [26]: 2810 nM
TGI [27]: 1600 nM
TGI [28]: 1030 nM
TGI [29]: 855 nM
TGI [30]: 2580 nM
TGI [31]: 2430 nM
TGI [32]: 3270 nM
TGI [33]: 3000 nM
TGI [34]: 1420 nM
TGI [35]: 2910 nM
TGI [36]: 3430 nM
TGI [37]: 3180 nM
TGI [38]: 2620 nM
TGI [39]: 2070 nM
TGI [40]: 402 nM
TGI [41]: 317 nM
TGI [42]: 682 nM
TGI [43]: 1780 nM
TGI [44]: 3080 nM
TGI [45]: 367 nM
TGI [46]: 3140 nM
TGI [47]: 263 nM
TGI [48]: 548 nM
TGI [49]: 1680 nM
TGI [50]: 1180 nM
TGI [51]: 8310 nM
TGI [52]: 1450 nM
TGI [53]: 308 nM
TGI [54]: 679 nM
TGI [55]: 773 nM
TGI [56]: 1220 nM
TGI [57]: 5850 nM
TGI [58]: 370 nM
TGI [59]: 324 nM
TGI [60]: 2820 nM
TGI [61]: 2580 nM
